Results published in patent US4180564A, “A-38533 Antibiotics and process for production thereof” (Eli Lilly and Company, priority 1978, dated 1979).
Values after ≈ are worked out from the molar mass of the structure shown.

Legend:
Pseudomonas aeruginosa = test: In vitro activity, standard agar-dilution test (MIC); assay type: cell-based
Excerpt: The A-38533 antibiotics inhibit the growth of certain gram-negative pathogenic organisms, particularly Pseudomonas species. The minimal inhibitory concentrations (MIC's) at which the A-38533 factors A1, A2, B and C inhibit various strains of Pseudomonas aeruginosa and Neisseria gonorrhea, as determined by standard agar-dilution tests, are summarized in Table X.

P. aeruginosa = test: In vivo antimicrobial activity, P. aeruginosa infection in mice; settings: Pseudomonas aeruginosa, sc
Excerpt: The A-38533 antibiotics have shown in vivo antimicrobial activity against experimental bacterial infections. […] Bacteriol. 81, 233-235 (1961)]. The LD50 values in Table XI refer to the infecting challenge of the pathogen, the measure being the number by which the LD50 (ip) of the infecting organism is multiplied.

Row | SMILES | MIC (Pseudomonas aeruginosa; strain 4276) | MIC (Pseudomonas aeruginosa; strain PA103) | MIC (Pseudomonas aeruginosa; strain PI23) | MIC (Pseudomonas aeruginosa; strain PS9) | MIC (Pseudomonas aeruginosa; strain PS15) | MIC (Pseudomonas aeruginosa; strain PS25) | MIC (Pseudomonas aeruginosa; strain X48) | MIC (Pseudomonas aeruginosa; strain X239) | MIC (Pseudomonas aeruginosa; strain X528) | ED50 (P. aeruginosa; Test A, P. aeruginosa X239, SC, ×3 doses, challenge 76 × LD50 (ip)) | ED50 (P. aeruginosa; Test B, P. aeruginosa 24J, ×3 doses, challenge 7.6 × LD50 (ip)) | ED50 (P. aeruginosa; Test C, P. aeruginosa 24J, ×3 doses, challenge 21.5 × LD50 (ip)) | ED50 (P. aeruginosa; Test A, P. aeruginosa X239, SC, ×2 doses, challenge 76 × LD50 (ip)) | ED50 (P. aeruginosa; Test B, P. aeruginosa 24J, ×2 doses, challenge 7.6 × LD50 (ip)) | ED50 (P. aeruginosa; Test C, P. aeruginosa 24J, ×2 doses, challenge 21.5 × LD50 (ip))
1 | CC1(C)S[C@@H]2[C@H](NC(=O)C(C(=O)O)c3ccccc3)C(=O)N2[C@H]1C(=O)O (stereo partly drawn) [Carbenicillin] | 128 mg/L (≈ 338 µM) | 32 mg/L (≈ 84.6 µM) | 32 mg/L (≈ 84.6 µM) | 32 mg/L (≈ 84.6 µM) | 16 mg/L (≈ 42.3 µM) | 64 mg/L (≈ 169 µM) | 16 mg/L (≈ 42.3 µM) | 32 mg/L (≈ 84.6 µM) | 16 mg/L (≈ 42.3 µM) | 29.3 mg/kg | 31.9 mg/kg | 57.5 mg/kg |  |  | 
2 | NC[C@H]1O[C@H](O[C@H]2[C@H](O)[C@@H](O[C@H]3O[C@H](CO)[C@@H](O)[C@H](N)[C@H]3O)[C@H](N)C[C@@H]2N)[C@H](N)C[C@@H]1O [Tobramycin] |  |  |  |  |  |  |  |  |  |  |  |  | 0.4 mg/kg | 0.4 mg/kg | 0.6 mg/kg
